Reference: patent publication US11161830B2, “4-pyridone compound or salt thereof, and pharmaceutical composition and formulation including same” (priority 2017, dated 2021)
Several values for one entry are separate records, joined by “and”; a condition that tells them apart may be missing. Equal values may be shown once.

Test system: HBV genotype C
Test: Test Example 3-2: in vivo efficacy study in PXB mouse (chimeric mouse with human hepatocytes), first and second study
Set-up: species or system hepatitis B virus
Details: second study, orally 3 mg/kg twice a day for 14 days from day 35, individual mice, 3 mg/kg
Experimental: An in vivo efficacy study with a PXB mouse (a chimeric mouse with human hepatocytes) was carried out in PhenixBio Co., Ltd. 19-Week-or-more-old male mice having body weights of 10.5 g or more after the elapse of 13 weeks or more from the infection with HBV genotype C were allocated into the respective groups and used. The studies were carried out twice, and a 21-day administration withdrawal period was provided between the first study and the second study.
The first administration day in the first study was taken as day 0, and the compound of Example 6-5 was orally administered at 1 mg/kg, 3 mg/kg, 10 mg/kg, and 30 mg/kg twice a day, or 0.5% methylcellulose (vehicle) was orally administered once a day for 14 days. Before administration on day 0, day 3, Day 7, and day 10, and on day 14, the blood was collected from the orbital venous plexus under anesthesia with isoflurane.
The first administration day in the second study was taken as day 35, and the compounds of Examples 19-2 and 20-2 were each orally administered at 3 mg/kg twice a day, or 0.5% methylcellulose (vehicle) was orally administered once a day for 14 days. Before administration on day 35, day 38, day 42, and day 45, the blood was collected from the orbital venous plexus under anesthesia with isoflurane. On day 49, the blood was collected from the heart under anesthesia with isoflurane.
The serum was separated from the collected blood and purified with a QIAamp (registered trademark) DNA Blood Mini Kit (manufactured by QIAGEN). The amount of HBV-DNA in the obtained solution was absolutely quantified by a real-time PCR method. In addition, the amount of HBsAg in the serum was absolutely quantified by chemiluminescent enzyme immunoassay using Lumipulse (registered trademark) HBsAg-HQ (manufactured by Fujirebio Inc.).

COCCO[C@@H]1CCN(c2ccc(-c3cc(=O)c(C(=O)O)cn3-c3ccc4nc(N5CCC[C@@H]5COC)sc4c3)cc2)C1 [Example 19-2, 6-(4-((R)-3-(2-methoxyethoxy)pyrrolidin-1-yl)phenyl)-1-(2-((R)-2-(methoxymethyl)pyrrolidin-1-yl)benzo[d]thiazol-6-yl)-4-oxo-1,4-dihydropyridine-3-carboxylic acid]
HBV-DNA in blood (Day 35 (before administration)): 6.1E+08 copies/mL and 3.7E+08 copies/mL
HBsAg in serum (Day 35 (before administration)): 1,872 IU/mL and 2,473 IU/mL
HBV-DNA in blood (Day 38): 2.1E+08 copies/mL and 6.2E+08 copies/mL
HBsAg in serum (Day 38): 968 IU/mL and 2,558 IU/mL
HBV-DNA in blood (Day 42): 3.3E+08 copies/mL and 2.5E+08 copies/mL
HBsAg in serum (Day 42): 992 IU/mL and 1,238 IU/mL
HBV-DNA in blood (Day 45): 4.2E+08 copies/mL and 3.0E+08 copies/mL
HBsAg in serum (Day 45): 1,548 IU/mL and 1,644 IU/mL
HBV-DNA in blood (Day 49): 1.4E+08 copies/mL and 1.8E+08 copies/mL
HBsAg in serum (Day 49): 1,509 IU/mL and 1,348 IU/mL
